Assay results published in patent US8466107B2, “Fibrin-binding peptides and conjugates thereof” (Bracco Imaging SpA, priority 2006, dated 2013).
Bridge positions count the residues as written; N and C are the ends.

Tested on: neuroblastoma (Neuro-2a) tumor
Assay: In vivo MRI test of fibrin imaging in neuroblastoma tumor mouse model
Details: mice with neuroblastoma tumor; 25 μmol/kg iv.; T1 weighted MRI at 2T, 4 h post injection
Excerpt: Three groups of 5 mice each, inoculated with 2·10^6 neuroblastoma cells with PBS, were formed and tested as follows: • Group a: Reference compound 2, • Group b: Chelate Complex 1 • Group c: ProHance® (see Protocol)
At day-10 post tumor cells inoculation, at least 4 mice per group with similar tumor size (5-10 mm in diameter) were selected for the in vivo MRI tests. After pre-contrast MRI acquisition (T1 and T2 high resolution 2D spin-echo and 3D gradient echo images), the test compounds were administered (25 μmol/kg iv.) and MRI was performed at 4 h and 24 h post injection. Maximum signal intensity was measured in the entire tumor area and in each post contrast image covering the whole tumor and the signal was compared to the pre-contrast images. At the end of MRI exams, all animals were sacrificed and the tumor, blood, liver, kidneys and femoral bone were removed and prepared for Gd assay by ICP-AES. […]
The mean signal intensity was measured within a region of interest (ROI) including the entire tumor, drawn by an operator on each MR image using dedicated software (MR Research Systems Ltd, Surrey UK). Signal intensity enhancement (Enh %) was determined as: Enh%=100*(SIx(t)−SI0)/SI0 […]

Substance: Chelated Complex 1: Gd chelated complex (four DTPA-Glu units on branched lysine linker) conjugated to the fibrin-binding peptide; MRI contrast agent (Ac-WQPCPAESWTFCWDPGGGK-NH2; disulfide 4-12; not fully specified (some residues); also: further groups not given here)
- tumor signal enhancement: significant tumor signal enhancement
